Experiments:
[1] = system: Human peripheral blood mononuclear cells (PBMC); assay: Cytokine Induction in Human Cells; type: cell-based; settings: 21-24 hours culture, lowest concentration inducing at least 2× negative control; for MEC to Induce Cytokine IFN-alpha: IFN-alpha by ELISA; for MEC to Induce Cytokine IFN-gamma: IFN-gamma by multiplex bead assay; for MEC to Induce Cytokine TNF-alpha: TNF-alpha by multiplex bead assay
Description: Cytokine Induction in Human Cells
Whole blood was obtained from healthy human donors and collected by venipuncture into vacutainer tubes or syringes containing EDTA. Human peripheral blood mononuclear cells (PBMC) were purified from the whole blood by density gradient centrifugation. Histopaque 1077 (15 mL, Sigma, St. Louis, MO) was transferred to 6×50 mL sterile polypropylene conical tubes. The Histopaque was overlayed with 15-25 mL of blood diluted 1:2 in Hank's Balanced Salts Solution (HBSS) (Gibco, Life Technologies, Grand Island, NY). The tubes were then centrifuged at 1370 rpm for 30 minutes at 20° C., with no brake (400×g, GH 3.8A Rotor).
The interface (buffy coat) containing the PBMC was collected and placed in a new sterile 50 mL conical polypropylene centrifuge tube. The PBMC were mixed with an equal volume of HBSS (about 20 mL from the interface and about 20 mL of HBSS), and then centrifuged at 1090 rpm, 10 minutes, 20° C., with brake (270×g, GH 3.8A Rotor). After completing centrifugation, the cells were resuspended in 2-3 mL ACK Red blood cell lysis buffer (ammonium chloride potassium solution, Gibco, Life Technologies) and incubated for 2-5 minutes at 20° C. Next, HBSS (40 mL) was added to the cells, and the sample was centrifuged at 270×g for 10 minutes at 20° C. The supernatant was decanted, and the cell pellet was resuspended in 5 mL AIM V Medium (Gibco, Life Technologies). Cell aggregates and debris were removed by filtering the cell solution through a BD Falcon 70 micron nylon cell strainer (BD Biosciences, San Jose, CA).
The number of viable cells was determined by counting with a Miltenyi FACS instrument (Miltenyi Biotec Inc., San Diego, CA) or by using a hemacytometer. For determining cell viability with a hemacytometer, the cells were diluted 1/10 in 0.4% trypan blue and HBSS (specifically, 50 microliter of trypan blue+40 microliter of HBSS+10 microliter of cell solution were added to a microfuge tube and mixed). Ten microliters of the diluted cells were then applied to the hemacytometer, and the number of viable PBMC were determined by microscopy.
The PBMC sample was then resuspended in 96-well plates at a concentration of 8×10^5 cells/well in 0.1 mL of AIM-V medium. Each compound was solubilized in DMSO to create a 3 mM stock solution. The stock solution was then further diluted with AIM-V medium to prepare the serial dilutions. The diluted compound (100 microliters) was then transferred to the PBMCs to achieve a testing set with final compound concentrations of 30, 10, 3.3, 1.1, 0.37, 0.12, 0.04, 0.01 micromolar or a testing set with final compound concentrations of 100, 33.3, 11.1, 3.7, 1.2, and 0.4 micromolar. The plates also had both positive and negative controls. The negative control wells contained only AIM-V medium with no example compound. The positive control wells contained a control set of imiquimod serially diluted to concentrations of 30, 10, 3.3, 1.1, 0.37, 0.12, 0.04, 0.01 micromolar or a control set of imiquimod serially diluted to concentrations of 100, 33.3, 11.1, 3.7, 1.2, and 0.4 micromolar. The concentrations used in the control set were selected to match the concentrations used in the testing set. The plates were then cultured at 37° C./5% CO2 for 21-24 hours. Cell-free supernatants were harvested by centrifuging the 96-well plates at 2100 rpm, 23° C. for 10 minutes. Approximately 160 microliters of the supernatant was then stored in a NUNC 96-well plate, covered with the compression cap and stored at −80° C. until the cytokine analysis was done.
IFN-alpha cytokine levels (picograms/mL) were measured by ELISA (human IFN-alpha, pan specific, Mabtech, Cincinnati, OH). IFN-gamma and TNF-alpha levels (picograms/mL) were measured by multiplex bead assay (magnetic beads, R & D Systems Minneapolis, MN) according to the manufacturer's instructions. […]

[2] = system: Human dermal adult fibroblast cells; assay: Cell Viability Determination (resazurin); type: cell-based; settings: human dermal adult fibroblasts, compound 200 micromolar, 24 hours, normalized to untreated vehicle control, n=3
Description: Cell Viability Determination
Each compound was individually dissolved in DMSO and then in Dulbecco's minimum essential cell culture medium (DMEM, Gibco, Life Technologies) containing 10% fetal bovine serum (Corning Life Sciences, Tewksbury, MA) and 1× antibiotic/antimycotic solution. The final DMSO concentration in a 200 micromolar compound concentration was 0.5%.
Human dermal adult fibroblast cells (ATCC, Manassas, VA) were seeded (7,500 cells/wells in a 96-well tissue culture polystyrene plate) in 100 microliters of DMEM cell culture medium containing 10% fetal bovine serum and 1× antibiotic/antimycotic solution. After approximately 18-24 hours of incubation in a humidified environment at 37° C. with 5% CO2, the wells were individually treated with one of the compounds in cell culture medium at a compound concentration of 200 micromolar or with 0.5% DMSO in cell culture medium as the vehicle (untreated) control. The cells were then incubated for 24 hours in a humidified environment at 37° C. with 5% CO2. Cell viability was determined using resazurin according to the procedure described by O'Brien, J. et al., European Journal of Biochemistry, 2000, 267(17): 5421-5426. Cell viability was normalized to the vehicle (untreated) cell control. In Table 14, the mean percent cell viability (n=3) is reported for the compounds of Examples 1, 2, 4, 5 and for 1-[(4-amino-1H-imidazo[4,5-c]quinoline-1-yl)methyl] cyclopentanol (the Comparative Example compound).

Row | SMILES | MEC to Induce Cytokine IFN-alpha [1] [µM] | MEC to Induce Cytokine IFN-gamma [1] [µM] | MEC to Induce Cytokine TNF-alpha [1] [µM] | Mean Percent Cell Viability [2] [%]
1 | CC[C@@H](n1cnc2c(N)nc3ccccc3c21)C1(O)CCCCC1 [Example 6, 1-[(1R)-1-(4-aminoimidazo[4,5-c]quinolin-1-yl)propyl]cyclohexanol] | 1.2 | 1.2 | 1.2 | –
2 | Nc1nc2ccccc2c2c1ncn2CC1(O)CCCC1 [Comparative Example, 1-[(4-amino-1H-imidazo[4,5-c]quinoline-1-yl)methyl]cyclopentanol, reference compound] | 10 | 10 | 10 | 2.1
3 | CC[C@@H](n1cnc2c(N)nc3ccccc3c21)C1(O)CCCC1 [Example 4, 1-[(1R)-1-(4-aminoimidazo[4,5-c]quinolin-1-yl)propyl]cyclopentanol] | 1.1 | 1.1 | 0.37 | 86
4 | C[C@@H](n1cnc2c(N)nc3ccccc3c21)C1(O)CC=CC1 [Example 3, 1-[(1R)-1-(4-aminoimidazo[4,5-c]quinolin-1-yl)ethyl]cyclopent-3-en-1-ol] | 3.3 | 3.3 | 3.3 | –
5 | C[C@H](n1cnc2c(N)nc3ccccc3c21)C1(O)CCCC1 [Example 2, 1-[(1S)-1-(4-aminoimidazo[4,5-c]quinolin-1-yl)ethyl]cyclopentanol] | >30 | >30 | >30 | 81
6 | CC[C@H](n1cnc2c(N)nc3ccccc3c21)C1(O)CCCC1 [Example 5, 1-[(1S)-1-(4-aminoimidazo[4,5-c]quinolin-1-yl)propyl]cyclopentanol] | >30 | >30 | >30 | 78
7 | C[C@@H](n1cnc2c(N)nc3ccccc3c21)C1(O)CCCC1 [Example 1, 1-[(1R)-1-(4-aminoimidazo[4,5-c]quinolin-1-yl)ethyl]cyclopentanol] | 3.3 | 3.3 | 3.3 | 80

— patent publication US11884662B2, “N-1 branched cycloalkyl substituted imidazo[4,5-c]quinoline compounds, compositions, and methods” (3M INNOVATIVE PROPERTIES COMPANY, priority 2018, dated 2024)
